Experimental data taken from patent US7309713B2, “Use of the non-opiate analgesic drug flupirtine for the treatment of overactive bladder and associated diseases including urge incontinence, urinary flow problems as a result of prostate hyperplasia and irritable bowel syndrome” (priority 2005, dated 2007).

Assays:
[1] = test system: mean arterial blood pressure; test: mean arterial blood pressure recorded in the urethane anaesthetised rats of the bladder model; details: summary over the doses tested
Experimental: The body temperature was maintained at 37° C. by means of an heated small operating table and 2 red light heating lamps. The left carotid artery was prepared and a catheter for continuous blood pressure measurement was inserted and connected to a Statham pressure transducer (Model P23 Db) and connected with a computer-controlled physiological recorder (PMS PR 800, Mumed Systems Ltd London, GB).
For intraduodenal drug administration a polyethylene catheter was inserted into the upper part of the duodenum, about 5 cm downwards from the pylorus and fixed with a purse-string suture. Bilateral ureters were ligated proximally to the bladder to prevent the bladder filling with urine. Urine of the kidneys was drained onto cotton swabs within the abdomen. The urinary bladder was catheterised via the urethra by use of PE 50 polyethylene tubing filled with physiological saline and secured in place by a ligature at the lower part of the urethra. Using a “T”-connector, the bladder catheter was connected to a Statham pressure transducer (Model P23 Db) connected with the physiological recorder (PMS PR 800) to measure intravesicular pressure and to a Infusion pump (TSE, FRG). Continuous recordings of intravesicular pressure and arterial blood pressure were captured onto a 4 channel Linearcorder WR3310 (Western Graphtec, Inc., USA). The experiment was started infusing (0.05 ml/min) the bladder with warmed saline (37-38° C.) to evoke rhythmic bladder contractions by means an infusion pump up to a maximal volume of 1.0 ml. The infusion is stopped after reaching the final volume or with the start of rhythmic bladder contractions.

[2] = test system: volume-induced rhythmic urinary bladder contractions; test: volume-induced rhythmic urinary bladder contractions in urethane anaesthetised rats (rat model of overactive bladder); format: in vivo, Sprague Dawley rat
Source text: In the search for new drugs compounds are of interest which affect the central nervous system circuits involved in micturation as well as the peripheral nerves resulting in a decrease in the frequency of the voiding reflex without any effect on bladder contractility. […] The method utilises spontaneous, volume-induced contractions of the urinary bladder in anaesthetised rats and was developed and first described by Dray (J. Pharmacol. Meth. 13:157-165, 1985) to assess the central activity of substances with opioid properties on bladder function. As this model clearly mimics the interplay between smooth muscle function and neuronal control thereof, this model can be also used to predict drug effects in a different disease, i.e. irritable bowl syndrome (IBS).
Aim of the study: To characterise the effects of the analgesic flupirtine maleate on the bladder function we used the model volume-induced contractions of urinary bladder in urethane anaesthetised rats. […] The compounds at the dose range 0.1-10 mg/kg were intraduodenally administered to anaesthetised rats. The intraduodenal route was chosen to mimic the oral route and to avoid the use of solvents necessary for intravenous administration.
• Species: Sprague Dawley rat • Sex: Female • Body weight: 200-270 g • Breeder: Charles River, Sulzfeld • Food/Tap water: pellets, ssniff M/R15, ad libitum, Spezialdiäten GmbH, Soest/Wesffalen, FRG • Conditions in animal housing: Rats were kept conventionally in groups of 6 in macrolon cages No. 4. • Room temperature: 20-24° C. • Relative humidity: 40-70%, deviations from the maximum range caused during cleaning procedure are possible • Light/Dark rhythm: 12/12 h light/dark cycle, light on at 6:00 a.m.
The food was withdrawn 16 hours before intraduodenal drug administration. Tap water was available ad libitum.
Flupirtine maleate or oxybutynin hydrochloride were suspended in hydroxyethylcellulose (0.5%) in demineralised water. The substances were ground in a mortar with pistil. The suspensions were placed on a magnetic stirrer before and during dosing procedures. The substances were freshly prepared in the morning and applied intraduodenally in a volume of 0.4 ml/100 g body weight. Control rats received hydroxyethylcellulose (0.5%) i.d.
The filling material, consisting of small globules, was ground in a mortar with pistil. Thereafter the grounded material was suspended in hydroxyethylcellulose (0.5%) in demineralised water. The suspensions were placed on a magnetic stirrer before and during dosing procedures for 10 minutes. The suspensions were freshly prepared in the morning and applied intraduodenally in a volume of 0.4 ml/100 g body weight to rats. Control rats received the same amount of hydroxyethylcellulose (0.5%) i.d.
The continuous registration lasted 1 hr. […] The frequency was evaluated for 10 min before (baseline) and within the observation period in intervals of 10 minutes starting 5, 20, 35 and 50 min after drug administration. For intraduodenal dosing, drugs were administered via a duodenal polyethylene tube to animals in aqueous suspension of 0.5% hydroxyethylcellulose.

[3] = test system: bladder instability after partial ligation of the proximal urethra; test: bladder hyperactivity/detrusor instability induced by chronic partial outflow obstruction; format: in vivo, rats; details: cystometry, 6 weeks after partial ligation
Source text: A different model of bladder hyperactivity/detrusor instability induced by chronic partial outflow obstruction is also useful to evaluate the efficacy of a compound. Partial obstruction is achieved using partial ligation of the proximal urethra in rats. […] This can be recorded using cystometry. This model more closely resembles the situation during prostate hyperplasia and other diseases resulting in outflow obstruction. Flupirtine is also active in this model.

[4] = test system: isolated organ strips of rat bladder; test: isolated organ strips of rat bladder contracted with potassium chloride (40 mM); details: read-out: IC50, concentration needed to counteract the contractile response of potassium chloride by 50%, isolated organ bath
Experimental: Flupirtine was also tested in an in vitro model of detrusor muscle activity. In this model, isolated organ strips of rat bladder was introduced in an isolated organ bath system. […] In this model, flupirtine did show some activity, but the concentration needed to relax the bladder strip was rather high. […] Direct effects on the bladder wall may be of limited relevance for the pharmacological effect. Indeed, this is in line with the observation that the contraction force of the detrusor in above mentioned in vivo models was not influenced at doses which clearly had pharmacological effects on micturation frequency.

SMILES: CCOC(=O)Nc1ccc(NCc2ccc(F)cc2)nc1N [flupirtine, 2-amino-3-carbethoxyamino-6-(4-fluorobenzylamino)-pyridine]
- effect on peripheral blood pressure [1]: not cause any effect
- fold higher activity in the bladder model than in the analgesia tests ([2]; compared with analgesic ED50 values): 3-10 fold
- intraduodenal dose at which the first effects became visible ([2]; intraduodenal): 3 mg/kg
- activity in the chronic partial outflow obstruction model [3]: active
- IC50 [4]: 7.5 µM
